From PubChem BioAssay (NCI)
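Each compound was tested at five concentrations against cells in 96-well plates for 48 hours. Here, GI50 denotes the concentration required for 50% inhibition of growth. Definition used: TGI = concentration required for complete inhibition of growth.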

How the values were obtained:
Experiment in all cases: growth of human tumour cells (NCI), 48 h
TK-10 renal = tested on: TK-10 renal
SK-MEL-5 melanoma = tested on: SK-MEL-5 melanoma
CCRF-CEM leukemia = tested on: CCRF-CEM leukemia
SN12C renal = tested on: SN12C renal
A498 renal = tested on: A498 renal
SK-MEL-2 melanoma = tested on: SK-MEL-2 melanoma
SNB-75 CNS = tested on: SNB-75 CNS
SF-268 CNS = tested on: SF-268 CNS
DU-145 prostate = tested on: DU-145 prostate
NCI/ADR-RES ovarian = tested on: NCI/ADR-RES ovarian

Structure (SMILES)	TGI (TK-10 renal) [µM]	TGI (SK-MEL-5 melanoma) [µM]	TGI (CCRF-CEM leukemia) [µM]	TGI (SN12C renal) [µM]	TGI (A498 renal) [µM]	TGI (SK-MEL-2 melanoma) [µM]	TGI (SNB-75 CNS) [µM]	TGI (SF-268 CNS) [µM]	GI50 (DU-145 prostate) [µM]	TGI (DU-145 prostate) [µM]	GI50 (TK-10 renal) [µM]	GI50 (SK-MEL-5 melanoma) [nM]	GI50 (SN12C renal) [µM]	GI50 (SK-MEL-2 melanoma) [µM]	GI50 (NCI/ADR-RES ovarian) [µM]	TGI (NCI/ADR-RES ovarian) [µM]	GI50 (SF-268 CNS) [µM]	GI50 (CCRF-CEM leukemia) [nM]	GI50 (SNB-75 CNS) [µM]	GI50 (A498 renal) [µM]
Oc1ccc(Br)cc1C=Nc1ccc(N=Cc2cc(Br)ccc2O)cc1	> 100	> 100	> 100	> 100	> 100	> 100	> 100	> 100	–	–	–	–	–	–	–	–	–	–	–	–
COc1cc(C(=O)N2CCc3c([nH]c4c([N+](=O)[O-])c(OC)ccc34)C2C)cc(OC)c1OC (centres undefined)	> 100	–	> 100	> 100	> 100	> 100	98.3	> 100	–	–	–	–	–	–	–	–	–	–	–	–
CC(=O)OCCOCNC(=S)N/N=C/c1ccc(Br)s1	> 100	> 100	> 100	> 100	> 100	> 100	> 100	> 100	–	–	–	–	–	–	–	–	–	–	–	–
CC1=C(C(=O)NNS(=O)(=O)c2ccc(C)cc2)CC(C(=O)NNS(=O)(=O)c2ccc(C)cc2)=C(C)N1	> 100	–	–	> 100	–	> 100	–	> 100	–	–	–	–	–	–	–	–	–	–	–	–
Cc1cccc(N=C2NC(=O)C(CC(=O)Nc3cccc(C)c3C)S2)c1 (centres undefined)	> 100	> 100	> 100	> 100	–	> 100	> 100	> 100	–	–	–	–	–	–	–	–	–	–	–	–
C=CCn1c2c(sc1=S)C(S)N=CN2 (centres undefined)	> 100	> 100	> 100	> 100	> 100	> 100	> 100	> 100	–	–	–	–	–	–	–	–	–	–	–	–
OCC(O)CNc1ccnc2cc(Cl)ccc12 (centres undefined)	> 100	> 100	> 100	> 100	> 100	> 100	> 100	> 100	–	–	–	–	–	–	–	–	–	–	–	–
Clc1ccc(N=CNc2ccc(-c3nc4ccccc4o3)cc2)cc1	54.2	30.1	–	> 100	–	> 100	–	39	14	38.2	21	15400	36.7	30	7.03	48.1	12.7	–	–	–
[F][Sn]([F])([c]1ccccc1)[c]1ccccc1	3.44	3.31	3.82	3.18	–	3.43	4.61	3.78	–	–	1.89	1780	1.68	1.91	–	–	1.84	688	1.7	–
CCOc1ccccc1NC(=O)C(=O)Cc1nc2ccccc2s1	> 100	> 100	> 100	> 100	> 100	> 100	> 100	> 100	–	–	–	–	–	–	–	–	–	–	–	–
O=C(O)CN(c1ccccc1)S(=O)(=O)c1ccc([N+](=O)[O-])cc1	> 100	> 100	> 100	> 100	> 100	> 100	–	–	–	–	–	–	–	–	–	–	–	–	–	–
Cc1cccc(C(C)C)c1NC(=O)C(=O)C(C(=O)c1ccccc1F)C1OC(=O)c2ccccc21 (centres undefined)	91.1	28.5	41	46.8	45.1	30.1	45.9	92.9	–	–	–	–	–	–	–	–	–	–	–	–
N#CC(C(=O)CCC(=O)Nc1cccc(C(F)(F)F)c1)c1ccc(Cl)cc1 (centres undefined)	> 100	> 100	> 100	> 100	> 100	–	–	> 100	–	–	–	–	–	–	–	–	–	–	–	–
COc1cc(C2C(C(=O)Nc3cc(F)c(F)cc3F)=C(C)NC(C)=C2C(=O)Nc2cc(F)c(F)cc2F)ccc1O	87.9	53.9	45.6	84.5	55.3	79.1	25.8	> 100	–	–	–	–	–	–	–	–	–	–	–	–
COC(=O)CCC1=C(CC(=O)OC)C(C)=N/C1=C\c1[nH]c(-c2ccc[nH]2)cc1OC	16.6	3.23	29.8	24.9	23.9	–	19.1	21.3	5.87	22.6	3.58	1440	11.1	–	4.06	16.9	5.95	1680	4.9	10.6
CC(=O)OC1C2CCC1C1C2C2(Cl)C(Cl)=C(Cl)C1(Cl)C2(Cl)Cl (centres undefined)	28.8	26	–	28.4	27	22.2	29.8	32.6	–	–	–	–	–	–	–	–	–	–	–	–
CC1=C(c2cc(C(=O)Nc3ccc(Cl)cc3)nc(=S)[nH]2)Sc2ccccc2N1	> 100	> 100	> 100	> 100	> 100	> 100	> 100	> 100	–	–	–	–	–	–	–	–	–	–	–	–
COC(=O)/C(=C\c1ccc(N(CCC#N)CCC#N)cc1)NC(=O)c1cc([N+](=O)[O-])ccc1Cl	> 100	> 100	> 100	> 100	> 100	> 100	> 100	> 100	–	–	–	–	–	–	–	–	–	–	–	–
Cc1cccc(C)c1NC(=O)C(=O)CC(=O)c1cccc([N+](=O)[O-])c1	> 100	> 100	> 100	> 100	> 100	> 100	> 100	> 100	–	–	–	–	–	–	–	–	–	–	–	–
O=c1nc(-c2ccccc2)cc(-c2ccccc2O)[nH]1	> 100	–	> 100	> 100	> 100	–	> 100	> 100	–	–	–	–	–	–	–	–	–	–	–	–
CC(C)(C)OC(=O)N1N=NC2C1C1CC(OCc3ccccc3)(OCc3ccccc3)C2O1 (centres undefined)	–	32.6	63.5	> 100	> 100	> 100	> 100	> 100	–	–	–	–	–	–	–	–	–	–	–	–
CC(C(=O)n1c2ccccc2c2ccccc21)N(c1ccccc1)c1ccccc1 (centres undefined)	34.5	35.1	4.02	41.4	–	28.4	37.8	36.2	–	–	–	–	–	–	–	–	–	–	–	–

Structure (SMILES)	TGI (TK-10 renal) [µM]	TGI (SK-MEL-5 melanoma) [µM]	TGI (CCRF-CEM leukemia) [µM]	TGI (SN12C renal) [µM]	TGI (A498 renal) [µM]	TGI (SK-MEL-2 melanoma) [µM]	TGI (SNB-75 CNS) [µM]	TGI (SF-268 CNS) [µM]	GI50 (DU-145 prostate) [µM]	TGI (DU-145 prostate) [µM]	GI50 (TK-10 renal) [µM]	GI50 (SK-MEL-5 melanoma) [nM]	GI50 (SN12C renal) [µM]	GI50 (SK-MEL-2 melanoma) [µM]	GI50 (NCI/ADR-RES ovarian) [µM]	TGI (NCI/ADR-RES ovarian) [µM]	GI50 (SF-268 CNS) [µM]	GI50 (CCRF-CEM leukemia) [nM]	GI50 (SNB-75 CNS) [µM]	GI50 (A498 renal) [µM]
Cc1cc(C(C)(C)C)cc(Cc2cc(C(C)(C)C)cc(Cc3cc(C(C)(C)C)cc(C)c3O)c2O)c1O	30	21.6	9.04	33.6	45.1	22.3	15.5	12.2	–	–	–	–	–	–	–	–	–	–	–	–
CCOC(=O)Cn1c(=O)n(C)c(=O)c2c1ncn2Cc1ccccc1	> 100	> 100	> 100	> 100	> 100	> 100	> 100	> 100	–	–	–	–	–	–	–	–	–	–	–	–
O=C(N/N=C/c1ccc([N+](=O)[O-])o1)c1ccc(O)cc1	> 100	2.88	70.5	> 100	–	> 100	83.2	> 100	6.38	> 100	> 100	1470	4.03	11.3	5.54	> 100	6.73	804	17.4	–
CO/N=C(/C)c1cccc(Nc2cc(-c3ccccc3)nc3ccc(OC)cc23)c1	12.8	8.13	–	9.67	–	> 100	> 100	14.1	12	31.5	3.32	2630	2.9	50.3	4.7	24	3.64	–	42.9	–
COC(=O)c1cccc2cccc(C(=O)Nc3ccc(Cl)cc3)c12	> 100	> 100	> 67.1	> 100	> 100	> 100	> 100	> 100	–	–	–	–	–	–	–	–	–	–	–	–
OCCNCCOc1ccc(/C(=C(/Cl)c2ccccc2)c2ccccc2)cc1	15.9	19.2	9.87	19.7	–	26.4	8.46	–	–	–	–	–	–	–	–	–	–	–	–	–
Clc1cc(Cl)cc(Nc2ccc3cc(OCCCN4CCOCC4)ccc3n2)c1	8.21	3.13	–	> 100	8.78	6.97	–	> 100	3.05	> 100	2.88	1710	3.46	2.7	2.96	> 100	2.9	–	–	1.93
c1ccc(CSc2nc3ccccc3nc2-c2cccs2)cc1	> 100	> 100	> 100	> 100	–	> 100	> 100	> 100	–	–	–	–	–	–	–	–	–	–	–	–
Cc1ccc(Nc2nnc(-c3ccc4c(c3)OCO4)o2)c(C)c1	> 100	> 100	–	> 100	> 100	> 100	> 100	> 100	–	> 100	–	–	–	–	–	> 100	–	–	–	–
O=C1C(=O)N(c2cc(Cl)ccc2Cl)C(=O)C(=O)C1c1nc2ccccc2o1	> 100	> 100	> 100	> 100	> 100	> 100	> 100	> 100	–	–	–	–	–	–	–	–	–	–	–	–
COC1=C(Br)C(=O)c2nc(C)ccc2C1=O	32.4	32	–	29.1	36.4	30.1	33.8	33.1	–	–	–	–	–	–	–	–	–	–	–	–
O=C1CSC(c2ccc(-c3nc4ccccc4s3)cc2)=N1	65.1	41.2	–	99.4	–	> 100	> 100	–	67	> 100	17.5	19200	36.9	40.9	50.5	> 100	–	–	> 100	–
CCOC(=O)/C(=C/c1cccc(C#N)c1)N(CC)CC	> 100	> 100	> 100	> 100	> 100	> 100	> 100	> 100	–	–	–	–	–	–	–	–	–	–	–	–
O=C1C(Cl)=C(Nc2ccccc2O)C(=O)N1Cc1ccccc1	62.1	28.6	32.7	29.9	40.6	96	–	52.2	18.2	32.1	28.7	15300	16.4	30.9	24.6	57.1	20.8	14500	–	18.4
CCN(CC)c1cc2oc3cc(N)cc(=N)c-3nc2cc1C	23.1	2.79	–	6.13	74.7	4.69	13.4	18.2	2.2	4.92	4.9	1420	1.94	2.01	2.29	> 100	3.26	–	2.84	16.3
O=S1(=O)OCCOS(=O)(=O)C1Cl	> 100	> 100	> 100	> 100	> 100	> 100	> 100	> 100	–	–	–	–	–	–	–	–	–	–	–	–
O=C(OCC(OC(=O)c1ccccc1)C(OC(=O)c1ccccc1)C(OC(=O)c1ccccc1)c1cnn(-c2ccccc2)n1)c1ccccc1 (centres undefined)	> 100	> 100	> 100	> 100	> 100	–	–	> 100	–	> 100	–	–	–	–	–	> 100	–	–	–	–
O=c1c2ccccc2nc(-c2ccccc2)n1NC(=S)Nc1ccccc1	> 100	> 100	> 100	> 100	> 100	> 100	> 100	> 100	–	–	–	–	–	–	–	–	–	–	–	–
N.N.NCCCCCCCCCN.O=C([O-])CC(=O)[O-].O=C([O-])CC(=O)[O-].[Pt+4].[Pt+4]	> 100	81.7	> 100	> 100	> 100	> 100	> 100	> 100	–	–	> 100	28900	67.5	> 100	–	–	> 100	21100	> 100	> 100
Cc1nn(C(=O)c2ccc(Cl)cc2)c2c1C(c1ccc(O)cc1)SC(N)=N2 (centres undefined)	> 10	> 10	> 10	> 10	–	> 10	> 10	> 10	–	> 10	–	–	–	–	–	> 10	–	–	–	–
CN(C)CCSc1nccc(-c2cc3ccccc3s2)n1	–	27.9	59.4	> 100	58.3	33.5	> 100	–	–	–	–	–	–	–	–	–	–	–	–	–
CC1CN1c1c(C(=O)/C=C/c2ccc(Cl)cc2)c(-c2ccccc2)nn(C)c1=O (centres undefined)	8.94	–	5.2	8.45	> 10	5.8	8.28	> 10	–	–	–	–	–	–	–	–	–	–	–	–
